Reference: patent US8795222B2, “Device and method for treatment of surface infections with nitric oxide” (Pulmonox Technologies Corp., priority 2000, dated 2014)

Tests used:
S. aureus = experiment: gNO dose study, colony growth on agar plates; type: cell-based
Description: FIG. 6 depicts a S. aureus dosage curve for exposure to gaseous NO (gNO) with bacteria grown on solid media. Relative percentages of growth of S. aureus colony forming units (cfu) at 50, 80, 120 and 160 parts per million (ppm) of nitric oxide compared with growth of S. aureus cfu in medical air (100%) are shown.
To study the effects of gaseous nitric oxide on potential pathogens, a custom gas exposure incubator was designed and validated for temperature, humidity, and gas concentrations, providing an environment that matches that of a microbiologic incubator, while enabling controlled exposure of precise concentrations of the gas. […] The gNO chamber allowed control and adjustment of following factors in all in vitro studies: gNO dose, total air flow, NO2 levels, O2 levels, CO2 levels, temperature, and humidity. For the initial pilot studies, two strains of bacterial pathogen were selected based on two proposed clinical applications of gNO for respiratory infections and topical application. P. aeruginosa is associated primarily with pulmonary disease, but may also be associated with skin infection such as in severe burns. S. aureus is associated with surface wound infections. Both of these micro-organisms were chosen for the pilot study.
The first step in the process of evaluating the direct effect of gNO on bacteria was to design a simple study to determine what dose, if any, would be an approximate lethal concentration level for microbes. Once an optimal dose was estimated, then a timing study would be conducted. For these initial studies, highly dense inoculums of P. aeruginosa and S. aureus suspensions (10^8 cfu/ml) were plated onto agar plates. These plates were then exposed to various concentrations of gNO in the exposure device in order to evaluate the effect on colony growth.

MRSA = experiment: Bacteriocidal time study, 200 ppm gNO, saline suspension; type: cell-based, Methicillin Resistant S. aureus
Description: (§1) Following the dose and time ranging studies, a series of experiments were performed to determine the time required to effectively induce a bacteriocidal effect with 200 parts per million of gNO, a concentration just above the dose used in the dose-ranging study, on a representative collection of drug resistant gram-positive and gram-negative strains of bacteria associated with clinical infection. A successful bacteriocidal effect was defined as a decrease in bacteria greater than 3 log10 cfu/ml. Further, C. albicans, Methicillin Resistant S. aureus (MRSA), a particularly resistant strain of P. aeruginosa from a cystic fibrosis patient, Group B Streptococcus, and M. smegmatis were also included to see if yeast, multi-drug resistant strains of bacteria, and actinomycetes have a similar response. The drug-resistant bacteria represent a variety of pathogens that contribute to both respiratory and wound infections.
(§2) For these experiments, saline was selected as a suspension media because it would not mask the direct effect of gNO as a bacteriocidal, whereas fully supplemented growth medium might introduce external variables (e.g., buffer or react with gNO). Other media might also provide metabolites and replenish nutrients that produce enzymes that protect bacteria from oxidative and nitrosative damage, thereby masking the effect of gNO. […] In saline, the colonies were static but remained viable. This is similar to the approach of Webert and Jean's use of animal models. Webert K E, et al (2000), Effects of inhaled nitric oxide in a rat model of Pseudomonas aeruginosa pneumonia, Crit. Care Med, 28(7):2397-2405 and Jean D, et al., (2002) Beneficial effects of nitric oxide inhalation on pulmonary bacterial clearance, Critical Care Medicine. 30(2):442-7.
(§3) The latent period was then followed by an abrupt death of all cells. Gram negative and gram positive bacteria, antibiotic resistant bacterial strains, yeast and mycobacteria were all susceptible to 200 ppm gNO. Of importance, is the observation that the two drug resistant bacteria strains were also susceptible.

[1] = system: all microorganisms tested; experiment: Bacteriocidal time study, 200 ppm gNO, saline suspension, all organisms together; type: cell-based
Description: as §1, §2, §3

Staphylococcus aureus = experiment: Full thickness infected wound model, wound bacterial content; type: in vivo, rabbits
Source text: FIG. 9 illustrates wound bacterial content following topical application of 200 ppm gNO in a full thickness infected wound model in rabbits.
In vivo studies in animal models have further shown the beneficial effects of nitric oxide gas. In an animal model, full-thickness cutaneous wounds (Set A: four rabbits with eight 8.0 mm punch biopsies & Set B: 4 rabbits with two 50×15 mm wounds) were made on each side of dorsal midline and infected with equal volume of Staphylococcus aureus suspension on day zero. On day one, treated groups in A and B were respectively exposed to 200 and 400 ppm gNO for total of three days. […] A 24-hour continuous delivery model was used for animals in Set B by design of a specialized wound patch. Control groups were only exposed to medical grade air with corresponding flow rate. Four random sample punch biopsies (8.0 mm) were collected on post wounding days 3 and analyzed for bacterial content. Another four punch biopsies from both wound and normal skin tissue were collected for fibroblast viability analysis and toxic effects of gNO.
On average well over 10 fold drop (p<0.05) in bacterial content is observed in comparison between control and treated groups.

[2] = system: fibroblasts grown in a 3D matrix; experiment: Fibroblasts grown in a 3D matrix, migration and proliferation; type: cell-based; conditions: 200 ppm NO for 8 hours per day for 3 days; compared with air or conventional incubator
[3] = average of the 13 bacteria listed above it, without Mycobacterium

For `[N]=O` [gNO, nitric oxide], which “colony size and number after transfer to a conventional incubator” value (S. aureus; 24 hours after gNO exposure, controls overgrew) is on record?
Its value is “remained the same in size and number”.

What about the “time required to achieve the >90% reduction of colony formation” value (S. aureus; gNO greater than 120 ppm, agar plates) of the same compound?
The value was 8 to 12 h.

And the “reduction of colony formation” value (S. aureus; gNO greater than 120 ppm, agar plates, compared with medical air)?
Its value is “greater than 90%”.

What about the survival (S. aureus; increasing gNO to 120 ppm, agar plates) of the same compound?
The survival was 5-10%.

What about the LD100 (MRSA) of the same compound?
The LD100 was 5 h.

What about the “Latent Period*” value (MRSA) of the same compound?
The value was 3 h.

What about the “−2.5 Log10” value (MRSA; time to −2.5 log10 cfu/ml) of the same compound?
The value was 4.2 hrs.

What about the bacteriocidal effect [1] of the same compound?
The bacteriocidal effect was “completely bacteriocidal effect”.

What about the “LD100, Average” value [1, 3] of the same compound?
Its value is 4.77 h.

And the “Latent Period*, Average” value [1, 3]?
The value was 2.77 h.

What about the “−2.5 Log10, Average” value [1, 3] of the same compound?
The value was 3.82 hrs.

What about the reduction in cfu/ml ([1]; every bacteria challenged) of the same compound?
Its reduction in cfu/ml is “at least a three log10 reduction”.

What about the wound bacterial content (Staphylococcus aureus; 200 ppm gNO continuously for 72 hours, compared with medical air control) of the same compound?
The wound bacterial content was “significant bacterial reduction”.

What about the “drop in wound bacterial content” value (Staphylococcus aureus; 400 ppm gNO, control versus treated, p<0.05) of the same compound?
The value was “over 10 fold”.

What about the migration of fibroblasts [2] of the same compound?
Its migration of fibroblasts is “does not appear to affect”.

And the proliferation of fibroblasts [2]?
Its proliferation of fibroblasts is “does not appear to interfere”.
